Laboratory results from US6218102A, “Synthetic peptides and mixtures thereof for detecting HIV antibodies” (priority 1988, dated 2001).
Where two headings read alike, the source gives them in different places. Peptide text beside a SMILES is read from it.

Key:
[1] = tested on: antibodies of patients infected by the AIDS viruses; conditions: cited from earlier work
Antibodies to HIV-1 [2] = assay: ELISA with peptide or peptide mixture as antigen, identifying HIV-1 positive sera; assay type: binding, human; conditions: single peptide, known HIV-1 positive sera, Table 3
Protocol: According to this test a peptide or a peptide mixture of the present invention is adsorbed onto the wells of a microtiter plate. The wells are then treated with sera to be tested. After washing, anti-human IgG labeled with peroxidase is added to the wells. The determination of the peroxidase is performed with a corresponding substrate, e.g. with o-phenylene diamine. Also in this procedure the peroxidase can be exchanged by another label, e.g. by a radioactive or fluorescence label.
(§1) Each well of the microtiter plate is saturated with 100 μl of a solution containing a peptide or mixture of peptides (5 μg/ml) and left overnight. The wells are emptied and washed twice with a washing buffer (Tris, 0.043M; NaCl, 0.5M; thimerosal, 0.01% w/v; Tween 20, 0.05% v/v; pH7.4). The wells are then saturated with 0.35 ml of washing buffer for 1 hr. at 37° C. and washed once with the same buffer. Serum samples to be analyzed are diluted with specimen buffer (washing buffer plus casein, 0.05% w/v). The wells are rinsed with washing buffer prior to the addition of the diluted serum sample (0.1 ml). These are left to incubate for 1 hr. at room temperature. The wells are then emptied, washed twice rapidly and then once for two minutes with washing buffer. […] The wells are then emptied and washed twice rapidly with washing buffer and then five times in which the buffer was in contact with the well 2 minutes per washing. The substrate solution (3,3', 5,5'-tetramethylbenzidine, 8 mg per ml of DMSO) is diluted with 100 volumes 0.1M citrate-acetate buffer, pH 5.6 containing 0.1% v/v of 30% H2 O2 and added to each well (0.1 ml per well). After 10 minutes the contents of each well is treated with 0.1 ml 2N H2 SO4 and the optical density read at 450 nm. All determinations are done in duplicate.

Antibodies to HIV-1 [3] = assay: ELISA, relative performance of cyclic and non-cyclic HIV-1 peptides at serum dilutions (optical density); assay type: binding, human
Protocol: Table 4 is provided to illustrate the sensitivity of cyclic versus non cyclic peptides in the ELISA test by comparing the results of some sera at various dilutions.
as §1

[4] = serum specimen 87V103, dilution 1/50
[5] = serum specimen 1428, dilution 1/50
[6] = serum specimen M-5, dilution 1/50
[7] = serum specimen M-5, dilution 1/100
[8] = serum specimen M-5, dilution 1/200
[9] = serum specimen M-5, dilution 1/800
[10] = serum specimen M-7, dilution 1/50
[11] = serum specimen M-7, dilution 1/100
[12] = serum specimen M-7, dilution 1/200
[13] = serum specimen M-7, dilution 1/400
[14] = serum specimen M-7, dilution 1/800
[15] = serum specimen M-8, dilution 1/50
[16] = serum specimen M-8, dilution 1/100
[17] = serum specimen M-8, dilution 1/200
[18] = serum specimen M-8, dilution 1/400
[19] = serum specimen M-8, dilution 1/800
[20] = serum specimen M-16, dilution 1/50
[21] = serum specimen M-16, dilution 1/100
[22] = serum specimen M-16, dilution 1/200
[23] = serum specimen M-16, dilution 1/400
[24] = serum specimen M-16, dilution 1/800

SGKLIC
immunoreactivity with HIV-1 positive sera ([1]; Gnann et al., 22 HIV-1 positive sera): not immunoreactive with any of the 22 HIV-1 positive sera tested

12-amino acid sequence (600-611): 12-amino acid sequence 600-611 from gp 41 (HIV-1), Gnann et al.
positive sera detected ([1]; Center for Disease Control, Atlanta): 78 out of 79
positive sera detected ([1]; Gnann et al., Journal of Virology 1987): 22 out of 22
HIV-1-infected patients reactive ([1]; J. Infect. Dis. 156, 1987, patients from the United States): 131 out of 132

SGKLICTTAVPWNAS [short synthetic peptide covering residues 606 to 620 of gp 41 (HIV-1), Ser. No. 120,027]
specificity ([1]; U.S. Ser. No. 120,027, seronegative specimens correctly identified): 63/63
sensitivity ([1]; U.S. Ser. No. 120,027, six of 57 confirmed positive not detected): 89%

NH2 -RILAVERYLKDQQLLGIWGCSGKLICTTAVPWNAS-COOH [Peptide 87]
% Positive Sera Correctly Identified (Antibodies to HIV-1 [2]): 99%
ELISA optical density (Antibodies to HIV-1 [3]; [4]): 0.005 OPTICAL DENSITY UNITS
ELISA optical density (Antibodies to HIV-1 [3]; [5]): 1.463 OPTICAL DENSITY UNITS
ELISA optical density (Antibodies to HIV-1 [3]; [6]): 1.809 OPTICAL DENSITY UNITS
ELISA optical density (Antibodies to HIV-1 [3]; [7]): 1.219 OPTICAL DENSITY UNITS
ELISA optical density (Antibodies to HIV-1 [3]; [8]): 1.513 OPTICAL DENSITY UNITS
ELISA optical density (Antibodies to HIV-1 [3]; serum specimen M-5, dilution 1/400): 1.418 OPTICAL DENSITY UNITS
ELISA optical density (Antibodies to HIV-1 [3]; [9]): 1.012 OPTICAL DENSITY UNITS
ELISA optical density (Antibodies to HIV-1 [3]; [10]): 1.504 OPTICAL DENSITY UNITS
ELISA optical density (Antibodies to HIV-1 [3]; [11]): 1.329 OPTICAL DENSITY UNITS
ELISA optical density (Antibodies to HIV-1 [3]; [12]): 1.184 OPTICAL DENSITY UNITS
ELISA optical density (Antibodies to HIV-1 [3]; [13]): 0.923 OPTICAL DENSITY UNITS
ELISA optical density (Antibodies to HIV-1 [3]; [14]): 0.571 OPTICAL DENSITY UNITS
ELISA optical density (Antibodies to HIV-1 [3]; [15]): 1.390 OPTICAL DENSITY UNITS
ELISA optical density (Antibodies to HIV-1 [3]; [16]): 1.087 OPTICAL DENSITY UNITS
ELISA optical density (Antibodies to HIV-1 [3]; [17]): 0.883 OPTICAL DENSITY UNITS
ELISA optical density (Antibodies to HIV-1 [3]; [18]): 0.593 OPTICAL DENSITY UNITS
ELISA optical density (Antibodies to HIV-1 [3]; [19]): 0.240 OPTICAL DENSITY UNITS
ELISA optical density (Antibodies to HIV-1 [3]; [20]): 1.846 OPTICAL DENSITY UNITS
ELISA optical density (Antibodies to HIV-1 [3]; [21]): 1.784 OPTICAL DENSITY UNITS
ELISA optical density (Antibodies to HIV-1 [3]; [22]): 1.740 OPTICAL DENSITY UNITS
ELISA optical density (Antibodies to HIV-1 [3]; [23]): 1.634 OPTICAL DENSITY UNITS
ELISA optical density (Antibodies to HIV-1 [3]; [24]): 1.537 OPTICAL DENSITY UNITS

CC[C@H](C)[C@@H]1NC(=O)[C@H](CC(C)C)NC(=O)[C@H](CCCCN)NC(=O)CNC(=O)[C@H](CO)NC(=O)[C@@H](NC(=O)CN)CSSC[C@@H](C(=O)N[C@H](C(=O)N[C@H](C(=O)N[C@@H](C)C(=O)N[C@H](C(=O)N2CCC[C@H]2C(=O)N[C@@H](Cc2c[nH]c3ccccc23)C(=O)N[C@@H](CC(N)=O)C(=O)N[C@@H](C)C(=O)N[C@@H](CO)C(=O)O)C(C)C)[C@@H](C)O)[C@@H](C)O)NC1=O [Peptide 80] (HELM PEPTIDE1{G.C.S.G.K.L.I.C.T.T.A.V.P.W.N.A.S}$PEPTIDE1,PEPTIDE1,2:R3-8:R3$$$V2.0)
% Positive Sera Correctly Identified (Antibodies to HIV-1 [2]): 100%
ELISA optical density (Antibodies to HIV-1 [3]; [4]): 0.003 OPTICAL DENSITY UNITS
ELISA optical density (Antibodies to HIV-1 [3]; [5]): 1.047 OPTICAL DENSITY UNITS
ELISA optical density (Antibodies to HIV-1 [3]; [6]): 2.104 OPTICAL DENSITY UNITS
ELISA optical density (Antibodies to HIV-1 [3]; [7]): 1.881 OPTICAL DENSITY UNITS
ELISA optical density (Antibodies to HIV-1 [3]; [8]): 1.599 OPTICAL DENSITY UNITS
ELISA optical density (Antibodies to HIV-1 [3]; [9]): 0.767 OPTICAL DENSITY UNITS
ELISA optical density (Antibodies to HIV-1 [3]; [10]): 0.191 OPTICAL DENSITY UNITS
ELISA optical density (Antibodies to HIV-1 [3]; [11]): 0.067 OPTICAL DENSITY UNITS
ELISA optical density (Antibodies to HIV-1 [3]; [12]): 0.019 OPTICAL DENSITY UNITS
ELISA optical density (Antibodies to HIV-1 [3]; [13]): 0.010 OPTICAL DENSITY UNITS
ELISA optical density (Antibodies to HIV-1 [3]; [14]): 0.005 OPTICAL DENSITY UNITS
ELISA optical density (Antibodies to HIV-1 [3]; [15]): 1.026 OPTICAL DENSITY UNITS
ELISA optical density (Antibodies to HIV-1 [3]; [16]): 0.737 OPTICAL DENSITY UNITS
ELISA optical density (Antibodies to HIV-1 [3]; [17]): 0.520 OPTICAL DENSITY UNITS
ELISA optical density (Antibodies to HIV-1 [3]; [18]): 0.340 OPTICAL DENSITY UNITS
ELISA optical density (Antibodies to HIV-1 [3]; [19]): 0.159 OPTICAL DENSITY UNITS
ELISA optical density (Antibodies to HIV-1 [3]; [20]): 1.601 OPTICAL DENSITY UNITS
ELISA optical density (Antibodies to HIV-1 [3]; [21]): 1.300 OPTICAL DENSITY UNITS
ELISA optical density (Antibodies to HIV-1 [3]; [22]): 0.903 OPTICAL DENSITY UNITS
ELISA optical density (Antibodies to HIV-1 [3]; [23]): 0.583 OPTICAL DENSITY UNITS
ELISA optical density (Antibodies to HIV-1 [3]; [24]): 0.329 OPTICAL DENSITY UNITS
